This is an account of results in US20250276964A1 (Novartis AG, priority 2021, published 2025).

The target of this test is T1, WIZ (Homo sapiens, UniProt O95785+Q96SW2).
T1 construct: expressed in transfected cells
The test can be described thus: Quantification of WIZ protein levels in HiBit tag fusion protein assay (WIZ HiBit assay in 293T cells). It counts as cell-based. The following applies: for Dmax at 25 µM / remaining activity at 25 µM: HEK-293T; for Dmax at 25 µM / % degradation of WIZ (100-Amax): 100 minus Amax at 25 uM; for Dmax at 25 µM: read-out: % degradation of WIZ (100-Amax); for remaining activity at 25 µM / WIZ Amax: DMSO-normalized, curve-fitted percentage of WIZ-HiBit remaining at 25 uM; for remaining activity at 25 µM: read-out: WIZ Amax; for DC50: WIZ HiBit assay in 293T cells, 10-point, 5-fold dilution, highest concentration 25 μM, about 18 hours, read-out: WIZ AC50. Here is the method:
The HiBit system from Promega was used to develop high-throughput and quantitative assays to measure changes in WIZ protein levels in response to compounds. The HiBit tag was derived from a split Nanoluciferase and has the following protein sequence: […] (SEQ ID NO: 1). The complementary fragment of Nanoluciferase (known as LgBit, from Promega), was added to the HiBit tag to form an active Nanoluciferase enzyme whose activity can be precisely measured. In this way, the levels of a fusion protein with the HiBit tag can be quantified in cell lysates.
Lentiviral vectors, based on the Invitrogen™ pLenti6.2/V5 DEST backbone were constructed that places the HiBit tag upstream of WIZ and expressed the fusion protein from an HSVTK promotor.
To ensure moderate and consistent expression of the HiBit-WIZ fusion protein across all cells in the population, stable cell lines were constructed from cells harboring a single copy of the construct. Lentivirus packaged with the constructs were made using the ViraPower™kit from Invitrogen™. 293T cells from ATCC (Catalog number: CRL-3216), were infected with the virus at low multiplicity of infection and selected by 5 μg/mL blasticidin in culture media for 2 weeks.
The levels of HiBit-WIZ tagged fusion proteins in compound-treated cell lines were measured as follows:
On day 1, cells were diluted to 1.0×10^6 cells/ml in normal growth medium. 20 μL of cell suspension were plated in each well of a solid white 384-well plate. Plates were incubated overnight in a 37° C. and 5% CO2 humidified tissue culture incubator.
On day 2, serial dilutions of compounds were made in 384-well plates. Compound plates were set up with DMSO in columns 1, 2, 23, 24, and 10-point compound dilution series in column 3-12 and column 13-22. 10 mM stock solution of compound were placed into column 3 or 13 and a 1:5 serial dilution was carried out until there was a 10-point dilution series per compound. 50 nL of diluted compounds were transferred into the plated cells by Echo® (Labcyte) acoustic transfer. The highest concentration of compound was 25 μM. Plates were incubated overnight (about 18 hours) in a 37° C. and 5% CO2 humidified tissue culture incubator.
On day 3, plates were removed from the incubator and allowed to equilibrate at room temperature for 60 minutes. HiBit substrate (Nano-Glo® HiBit Lytic Detection System, Promega Catalogue number: N3050) was added as described by the manufacturers protocols. Plates were incubated at room temperature for 30 minutes and luminescence was read using an EnVision® reader (PerkinElmer®). Data was analyzed and visualized using the Spotfire® software package.
WIZ Amax reflects the DMSO-normalized, curve-fitted percentage of WIZ-HiBit remaining at 25 uM. It was calculated by normalizing DMSO controls to 100%, parametric curve fitting of the dose response data (10-point, 5-fold), followed by calculation of response at 25 uM using the fitted equation (nd=not determined).
Background: HiBiT is a short tag that completes a luciferase, so light tracks the accessible tagged protein.

T1 sequence (O95785 whole entry): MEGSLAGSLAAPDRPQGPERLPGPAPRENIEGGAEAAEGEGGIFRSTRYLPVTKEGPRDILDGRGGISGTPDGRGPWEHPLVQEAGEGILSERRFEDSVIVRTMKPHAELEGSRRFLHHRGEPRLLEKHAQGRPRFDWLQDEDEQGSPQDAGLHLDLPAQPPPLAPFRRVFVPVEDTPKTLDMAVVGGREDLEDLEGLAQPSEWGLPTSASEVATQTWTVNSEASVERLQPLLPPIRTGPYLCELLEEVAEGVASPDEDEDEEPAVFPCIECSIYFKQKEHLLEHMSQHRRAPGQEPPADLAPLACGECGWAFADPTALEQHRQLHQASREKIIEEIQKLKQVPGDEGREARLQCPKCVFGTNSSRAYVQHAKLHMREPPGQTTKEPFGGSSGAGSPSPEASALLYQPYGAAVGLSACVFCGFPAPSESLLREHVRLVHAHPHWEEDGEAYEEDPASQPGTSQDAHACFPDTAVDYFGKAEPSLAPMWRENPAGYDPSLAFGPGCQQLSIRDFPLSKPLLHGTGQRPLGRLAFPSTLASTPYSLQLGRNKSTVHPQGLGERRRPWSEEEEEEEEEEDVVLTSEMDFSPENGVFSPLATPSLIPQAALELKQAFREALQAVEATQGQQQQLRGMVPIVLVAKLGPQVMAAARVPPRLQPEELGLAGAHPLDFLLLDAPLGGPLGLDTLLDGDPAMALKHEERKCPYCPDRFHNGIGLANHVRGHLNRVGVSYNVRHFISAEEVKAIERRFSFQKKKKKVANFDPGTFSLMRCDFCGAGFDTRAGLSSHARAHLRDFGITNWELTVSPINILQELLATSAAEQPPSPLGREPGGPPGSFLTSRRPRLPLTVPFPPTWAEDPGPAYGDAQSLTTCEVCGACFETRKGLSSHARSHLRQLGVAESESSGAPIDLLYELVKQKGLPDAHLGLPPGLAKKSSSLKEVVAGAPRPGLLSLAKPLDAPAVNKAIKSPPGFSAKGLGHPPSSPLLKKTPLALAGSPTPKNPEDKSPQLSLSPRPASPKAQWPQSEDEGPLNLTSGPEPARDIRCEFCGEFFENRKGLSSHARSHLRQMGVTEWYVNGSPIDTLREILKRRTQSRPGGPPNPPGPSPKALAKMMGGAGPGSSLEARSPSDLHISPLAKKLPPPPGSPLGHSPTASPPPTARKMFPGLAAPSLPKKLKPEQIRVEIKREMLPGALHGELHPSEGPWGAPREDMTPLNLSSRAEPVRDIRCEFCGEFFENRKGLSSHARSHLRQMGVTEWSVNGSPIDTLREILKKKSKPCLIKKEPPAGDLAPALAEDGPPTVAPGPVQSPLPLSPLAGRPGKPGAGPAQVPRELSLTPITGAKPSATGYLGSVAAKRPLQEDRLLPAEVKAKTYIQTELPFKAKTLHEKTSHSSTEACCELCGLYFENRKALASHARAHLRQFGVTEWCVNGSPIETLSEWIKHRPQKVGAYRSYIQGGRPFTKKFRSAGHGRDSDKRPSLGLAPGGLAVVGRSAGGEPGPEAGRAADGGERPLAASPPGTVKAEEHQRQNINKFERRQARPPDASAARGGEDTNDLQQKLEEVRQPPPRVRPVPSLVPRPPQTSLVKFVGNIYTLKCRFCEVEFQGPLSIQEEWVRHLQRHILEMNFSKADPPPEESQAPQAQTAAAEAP
T1 sequence (Q96SW2 whole entry): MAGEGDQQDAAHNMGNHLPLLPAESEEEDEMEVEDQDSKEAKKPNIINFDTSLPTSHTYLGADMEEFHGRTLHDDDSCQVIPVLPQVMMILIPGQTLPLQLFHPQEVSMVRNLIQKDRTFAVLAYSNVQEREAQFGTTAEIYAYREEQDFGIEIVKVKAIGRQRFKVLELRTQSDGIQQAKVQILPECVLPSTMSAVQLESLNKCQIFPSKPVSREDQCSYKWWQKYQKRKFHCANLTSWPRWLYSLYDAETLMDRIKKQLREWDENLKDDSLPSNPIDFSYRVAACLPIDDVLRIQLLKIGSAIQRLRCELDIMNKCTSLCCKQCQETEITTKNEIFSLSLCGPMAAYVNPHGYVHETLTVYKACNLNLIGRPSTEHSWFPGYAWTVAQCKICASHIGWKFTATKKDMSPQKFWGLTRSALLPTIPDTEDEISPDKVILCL
T1 sequence (Q16531 whole entry partner): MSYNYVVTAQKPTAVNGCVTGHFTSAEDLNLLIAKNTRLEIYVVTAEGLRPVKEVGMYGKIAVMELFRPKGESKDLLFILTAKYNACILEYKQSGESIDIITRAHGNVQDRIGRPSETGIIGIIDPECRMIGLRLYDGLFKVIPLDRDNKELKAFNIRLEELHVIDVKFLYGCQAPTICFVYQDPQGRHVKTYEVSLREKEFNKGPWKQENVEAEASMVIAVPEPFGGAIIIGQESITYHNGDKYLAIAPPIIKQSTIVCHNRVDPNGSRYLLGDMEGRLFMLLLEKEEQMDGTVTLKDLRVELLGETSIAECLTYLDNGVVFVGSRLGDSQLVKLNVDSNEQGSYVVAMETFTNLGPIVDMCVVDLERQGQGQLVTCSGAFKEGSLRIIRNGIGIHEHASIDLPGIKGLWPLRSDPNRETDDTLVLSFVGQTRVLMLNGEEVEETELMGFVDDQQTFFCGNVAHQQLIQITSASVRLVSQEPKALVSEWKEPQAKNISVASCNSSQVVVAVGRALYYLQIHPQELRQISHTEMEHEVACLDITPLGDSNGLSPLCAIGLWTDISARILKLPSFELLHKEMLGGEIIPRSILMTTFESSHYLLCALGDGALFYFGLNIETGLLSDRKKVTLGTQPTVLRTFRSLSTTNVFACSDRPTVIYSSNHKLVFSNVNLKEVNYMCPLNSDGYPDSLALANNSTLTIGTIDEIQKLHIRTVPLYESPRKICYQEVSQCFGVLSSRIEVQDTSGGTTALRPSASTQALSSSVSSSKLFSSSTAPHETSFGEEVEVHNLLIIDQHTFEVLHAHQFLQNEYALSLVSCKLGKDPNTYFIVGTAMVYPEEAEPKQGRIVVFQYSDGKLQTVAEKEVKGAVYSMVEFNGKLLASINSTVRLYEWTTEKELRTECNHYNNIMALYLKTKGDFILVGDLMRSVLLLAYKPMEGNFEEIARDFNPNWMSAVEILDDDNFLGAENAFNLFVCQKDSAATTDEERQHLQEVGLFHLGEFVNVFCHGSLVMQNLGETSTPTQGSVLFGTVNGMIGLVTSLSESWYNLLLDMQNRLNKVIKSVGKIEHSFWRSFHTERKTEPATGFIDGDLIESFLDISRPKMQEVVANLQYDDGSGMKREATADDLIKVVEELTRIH

Take `O=C1CCN(c2noc3ccc(CC4CCN(Cc5ccccc5)CC4)cc23)C(=O)N1` [Example 9, 1-(5-((1-benzylpiperidin-4-yl)methyl)benzo[d]isoxazol-3-yl)dihydropyrimidine-2,4(1H,3H)-dione]: the Dmax at 25 µM was found to be 91%, the remaining activity at 25 µM was 9% and the DC50 worked out at 0.056 µM.
The corresponding values for `CC(C)CN1CCN(Cc2ccc3onc(N4CCC(=O)NC4=O)c3c2)[C@H](C(C)C)C1` [Example 90, (R)-1-(5-((4-isobutyl-2-isopropylpiperazin-1-yl)methyl)benzo[d]isoxazol-3-yl)dihydropyrimidine-2,4(1H,3H)-dione] are 85%, 15% and 0.007 µM.
Taken in the same sequence, the figures for `O=C1CCN(c2noc3ccc(CN4CCN(CC5CCOCC5)CC4)cc23)C(=O)N1` [Example 23, 1-(5-((4-((tetrahydro-2H-pyran-4-yl)methyl)piperazin-1-yl)methyl)benzo[d]isoxazol-3-yl)dihydropyrimidine-2,4(1H,3H)-dione] were 91%, 9% and 0.004 µM.
Taken in the same sequence, the figures for `CC(C)[C@@H]1CN(C)CCN1Cc1ccc2onc(N3CCC(=O)NC3=O)c2c1` [Example 89, (R)-1-(5-((2-isopropyl-4-methylpiperazin-1-yl)methyl)benzo[d]isoxazol-3-yl)dihydropyrimidine-2,4(1H,3H)-dione] were 83%, 17% and 0.028 µM.
For `CC(C)CN1CCN(Cc2ccc3onc(N4CCC(=O)NC4=O)c3c2)C[C@H]1C` [Example 34, (R)-1-(5-((4-isobutyl-3-methylpiperazin-1-yl)methyl)benzo[d]isoxazol-3-yl)dihydropyrimidine-2,4(1H,3H)-dione], the Dmax at 25 µM was found to be 89%, the remaining activity at 25 µM was determined as 11% and the DC50 is 0.04 µM.
On to `O=C1CCN(c2noc3ccc(CN4CC5CCC4CN5CC4CCOCC4)cc23)C(=O)N1` (single isomer, unassigned) [Example 122, 1-(5-((5-((tetrahydro-2H-pyran-4-yl)methyl)-2,5-diazabicyclo[2.2.2]octan-2-yl)methyl)benzo[d]isoxazol-3-yl)dihydropyrimidine-2,4(1H,3H)-dione], for which the “% degradation of WIZ (100-Amax)” value worked out at 91%, the “WIZ Amax” value came to 9% and the DC50 is 0.044 µM.
Take `C[C@H]1CN(Cc2ccc3onc(N4CCC(=O)NC4=O)c3c2)CCN1CC1COC1` [Example 86, (S)-1-(5-((3-methyl-4-(oxetan-3-ylmethyl)piperazin-1-yl)methyl)benzo[d]isoxazol-3-yl)dihydropyrimidine-2,4(1H,3H)-dione]: the Dmax at 25 µM was determined as 86%, the remaining activity at 25 µM came to 14% and the DC50 is 0.011 µM.
Taken in the same sequence, the figures for `C[C@@H]1CN(CC2CCOCC2)CCN1Cc1ccc2onc(N3CCC(=O)NC3=O)c2c1` [Example 67, (R)-1-(5-((2-methyl-4-((tetrahydro-2H-pyran-4-yl)methyl)piperazin-1-yl)methyl)benzo[d]isoxazol-3-yl)dihydropyrimidine-2,4(1H,3H)-dione] were 89%, 11% and 0.009 µM.
The corresponding values for `CN1[C@@H]2CC[C@H]1CN(Cc1ccc3onc(N4CCC(=O)NC4=O)c3c1)C2` [Example 101, 1-(5-(((1R,5S)-8-methyl-3,8-diazabicyclo[3.2.1]octan-3-yl)methyl)benzo[d]isoxazol-3-yl)dihydropyrimidine-2,4(1H,3H)-dione] are 78%, 22% and 0.013 µM.
The corresponding values for `C[C@@H]1CN(CC2CCOCC2)C[C@H](C)N1Cc1ccc2onc(N3CCC(=O)NC3=O)c2c1` [Example 109, 1-(5-(((2R,6S)-2,6-dimethyl-4-((tetrahydro-2H-pyran-4-yl)methyl)piperazin-1-yl)methyl)benzo[d]isoxazol-3-yl)dihydropyrimidine-2,4(1H,3H)-dione] are 73%, 27% and 0.355 µM.
Regarding `C[C@@H]1CN(C2CC2)CCN1Cc1ccc2onc(N3CCC(=O)NC3=O)c2c1` [Example 120, (R)-1-(5-((4-cyclopropyl-2-methylpiperazin-1-yl)methyl)benzo[d]isoxazol-3-yl)dihydropyrimidine-2,4(1H,3H)-dione], the Dmax at 25 µM amounted to 83%, the remaining activity at 25 µM came out at 17% and the DC50 was 0.538 µM.
In the case of `CC(C)CN1CCN(Cc2ccc3onc(N4CCC(=O)NC4=O)c3c2)C[C@@H]1C` [Example 30, (S)-1-(5-((4-isobutyl-3-methylpiperazin-1-yl)methyl)benzo[d]isoxazol-3-yl)dihydropyrimidine-2,4(1H,3H)-dione], the Dmax at 25 µM stood at 91%, the remaining activity at 25 µM was 9% and the DC50 amounted to 0.0045 µM.
Taken in the same sequence, the figures for `CC(C)S(=O)(=O)N1CCN(Cc2ccc3onc(N4CCC(=O)NC4=O)c3c2)[C@H](C)C1` [Example 73, (R)-1-(5-((4-(isopropylsulfonyl)-2-methylpiperazin-1-yl)methyl)benzo[d]isoxazol-3-yl)dihydropyrimidine-2,4(1H,3H)-dione] were 83%, 17% and 0.11 µM.
Taken in the same sequence, the figures for `CN1CCCC(Cc2ccc3onc(N4CCC(=O)NC4=O)c3c2)C1` (stereo not drawn) [Example 45, 1-(5-((1-methylpiperidin-3-yl)methyl)benzo[d]isoxazol-3-yl)dihydropyrimidine-2,4(1H,3H)-dione] were 77%, 23% and 0.24 µM.
The corresponding values for `O=C1CCN(c2noc3ccc(CN4CCN(Cc5ccccc5)CC4)cc23)C(=O)N1` [Example 25, 1-(5-((4-benzylpiperazin-1-yl)methyl)benzo[d]isoxazol-3-yl)dihydropyrimidine-2,4(1H,3H)-dione] are 87%, 13% and 0.13 µM.
For `C[C@@H]1CN(S(=O)(=O)N2CCCC2)CCN1Cc1ccc2onc(N3CCC(=O)NC3=O)c2c1` [Example 74, (R)-1-(5-((2-methyl-4-(pyrrolidin-1-ylsulfonyl)piperazin-1-yl)methyl)benzo[d]isoxazol-3-yl)dihydropyrimidine-2,4(1H,3H)-dione], the Dmax at 25 µM came out at 76%, the remaining activity at 25 µM was 24% and the DC50 was found to be 0.437 µM.
For the compound `CN1[C@@H]2CC[C@H]1CC(Cc1ccc3onc(N4CCC(=O)NC4=O)c3c1)C2` (stereo partly drawn) [Example 59, 1-(5-(((1R,5S)-8-methyl-8-azabicyclo[3.2.1]octan-3-yl)methyl)benzo[d]isoxazol-3-yl)dihydropyrimidine-2,4(1H,3H)-dione], the “% degradation of WIZ (100-Amax)” value came to 84%, the “WIZ Amax” value came to 16% and the DC50 was 0.025 µM.
With `O=C1CCN(c2noc3ccc(CN4[C@@H]5CC[C@H]4CNC5)cc23)C(=O)N1` [Example 102, 1-(5-(((1R,5S)-3,8-diazabicyclo[3.2.1]octan-8-yl)methyl)benzo[d]isoxazol-3-yl)dihydropyrimidine-2,4(1H,3H)-dione], the Dmax at 25 µM worked out at 80%, the remaining activity at 25 µM stood at 20% and the DC50 is 0.462 µM.
For `C[C@H]1CN(CC2CCOCC2)[C@@H](C)CN1Cc1ccc2onc(N3CCC(=O)NC3=O)c2c1` [Example 107, 1-(5-(((2S,5S)-2,5-dimethyl-4-((tetrahydro-2H-pyran-4-yl)methyl)piperazin-1-yl)methyl)benzo[d]isoxazol-3-yl)dihydropyrimidine-2,4(1H,3H)-dione], the Dmax at 25 µM amounted to 86%, the remaining activity at 25 µM worked out at 14% and the DC50 came out at 0.056 µM.
